Assay results: ChEMBL document CHEMBL1201862, “PubChem BioAssay data set” (2004)
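Dose response: 5 concentrations. Exposure: 48 h. Format: 96-well plates. Endpoint: linear interpolation; highest concentration if not reached. GI50 marks 50% less growth.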 Active and inactive are the calls of the source. No stated cut-off is given here; in the data, active = GI50 up to about 1.1 µM and inactive = higher.

Legend:
Experiment in all cases: DTP human tumour cell line panel, 48 h
LXFL 529 = tested on: LXFL 529
DMS-114 = tested on: DMS-114
DLD-1 = tested on: DLD-1
RXF 631 = tested on: RXF 631
M19-MEL = tested on: M19-MEL
XF498 = tested on: XF498
DMS-273 = tested on: DMS-273
SNB-78 = tested on: SNB-78
HOP-18 = tested on: HOP-18

| Structure (SMILES) | GI50 (LXFL 529) | GI50 (DMS-114) | GI50 (DLD-1) | GI50 (RXF 631) | GI50 (M19-MEL) | GI50 (XF498) | GI50 (DMS-273) | GI50 (SNB-78) | GI50 (HOP-18) |
| --- | --- | --- | --- | --- | --- | --- | --- | --- | --- |
| O=C(O)C12C3C4C1C1C2C3C41I (configuration not stated) | > 100 µM (inactive) | > 100 µM (inactive) | > 100 µM (inactive) | > 100 µM (inactive) | > 100 µM (inactive) | > 100 µM (inactive) | > 100 µM (inactive) | > 100 µM (inactive) |  |
| CC(=O)NC(CCCNC(=O)OCc1ccccc1)C(=O)NCc1ccccc1 (configuration not stated) | > 100 µM (inactive) | > 100 µM (inactive) | > 100 µM (inactive) |  | > 100 µM (inactive) | > 100 µM (inactive) | > 100 µM (inactive) |  |  |
| C=C1CC2C(=O)N(c3ccccc3)C(=O)C2CC1n1[nH]c(=O)n(Cc2ccccc2)c1=O (configuration not stated) | > 100 µM (inactive) |  | > 100 µM (inactive) |  | > 100 µM (inactive) | > 100 µM (inactive) | > 100 µM (inactive) | > 100 µM (inactive) | > 100 µM (inactive) |
| O=c1[nH]c2ccccc2nc1CBr | 1.12 µM (active) |  | 8.87 µM (inactive) |  | 10.2 µM (inactive) | 1.9 µM (inactive) | 1.61 µM (inactive) | 16.1 µM (inactive) | 6.93 µM (inactive) |
| O=C(NC(=O)c1ccccc1[N+](=O)[O-])Nc1ccc(Oc2ncc(Cl)cn2)c([N+](=O)[O-])c1 | 0.217 µM (active) | 0.0865 µM (active) | 0.217 µM (active) | 0.286 µM (active) | 0.135 µM (active) | 0.818 µM (active) | 0.0738 µM (active) | 0.252 µM (active) | > 100 µM (inactive) |
| COc1ccc(S(=O)(=O)N/N=C(\C)CN2C(=O)c3ccccc3C2=O)cc1OC | > 100 µM (inactive) | > 100 µM (inactive) | > 100 µM (inactive) |  | > 100 µM (inactive) | > 100 µM (inactive) | > 100 µM (inactive) | > 100 µM (inactive) | > 100 µM (inactive) |
| O=S(=O)(N/N=C\c1c2ccccc2[n+]([O-])c2ccccc12)c1ccc(Cl)cc1 | > 100 µM (inactive) | > 100 µM (inactive) | > 100 µM (inactive) | > 100 µM (inactive) | > 100 µM (inactive) |  | 93.3 µM (inactive) | > 100 µM (inactive) | 32.4 µM (inactive) |
| S=c1c2ccccc2c(=S)n2n1CC=CC2 | > 100 µM (inactive) | > 100 µM (inactive) | > 100 µM (inactive) | > 100 µM (inactive) | > 100 µM (inactive) |  | > 100 µM (inactive) | > 100 µM (inactive) | > 100 µM (inactive) |
| CCCCCCc1cc2c(C)c(C)c(=O)oc2cc1OCCCOc1cc2oc(=O)c(C)c(C)c2cc1CCCCCC | > 100 µM (inactive) | > 100 µM (inactive) | > 100 µM (inactive) |  | > 100 µM (inactive) | > 100 µM (inactive) | > 100 µM (inactive) | > 100 µM (inactive) | > 100 µM (inactive) |
| COc1ccccc1NC(=O)C(=O)C1C(=O)Nc2ccccc2[S+]1[O-] (configuration not stated) | > 100 µM (inactive) | > 100 µM (inactive) | > 100 µM (inactive) | > 100 µM (inactive) | > 100 µM (inactive) | > 100 µM (inactive) | > 100 µM (inactive) | > 100 µM (inactive) | > 100 µM (inactive) |
| Cc1cc(=O)oc2c1cc(OCC(=O)OCCN1CCCCC1)c1occ(C)c12 | > 100 µM (inactive) | > 100 µM (inactive) | > 100 µM (inactive) |  | > 100 µM (inactive) | > 100 µM (inactive) | > 100 µM (inactive) | > 100 µM (inactive) | > 100 µM (inactive) |
| N#CC1CCCCC1NC1(C#N)CCCCC1 (configuration not stated) | > 100 µM (inactive) | > 100 µM (inactive) | > 100 µM (inactive) |  |  | > 100 µM (inactive) | > 100 µM (inactive) | > 100 µM (inactive) |  |
| COC(=O)C(C(=O)C(=O)Nc1ccccc1C)c1nc2ccc([N+](=O)[O-])cc2nc1O (configuration not stated) | > 100 µM (inactive) | > 100 µM (inactive) | > 100 µM (inactive) |  | > 100 µM (inactive) | > 100 µM (inactive) | > 100 µM (inactive) | > 100 µM (inactive) | > 100 µM (inactive) |
| O=C1C(Cl)=C(Cl)C(=O)N1c1ccc(Cl)c(Cl)c1Cl | 28.1 µM (inactive) | 32.7 µM (inactive) | 34.9 µM (inactive) | > 100 µM (inactive) | 88.3 µM (inactive) |  | > 100 µM (inactive) | > 100 µM (inactive) | > 100 µM (inactive) |
| N/N=C(\c1nc2ccc(Cl)cc2nc1O)C(O)c1ccc(Cl)c(Cl)c1 (configuration not stated) | > 100 µM (inactive) | > 100 µM (inactive) | 46.7 µM (inactive) | > 100 µM (inactive) | > 100 µM (inactive) | > 100 µM (inactive) | 81.1 µM (inactive) | > 100 µM (inactive) |  |
| NC(=O)COc1ccc(Br)cc1Br | > 100 µM (inactive) | > 100 µM (inactive) | > 100 µM (inactive) |  | > 100 µM (inactive) |  | > 100 µM (inactive) | > 100 µM (inactive) | > 100 µM (inactive) |
| Cc1ccc(S(=O)(=O)N/N=C(\c2nc3ccc([N+](=O)[O-])cc3nc2O)C(O)c2ccccc2Cl)cc1 (configuration not stated) | 35.8 µM (inactive) | 16.7 µM (inactive) | > 100 µM (inactive) | > 100 µM (inactive) | 86.9 µM (inactive) |  | > 100 µM (inactive) | > 100 µM (inactive) | > 100 µM (inactive) |
| Cc1ccc2nc3c(C(=O)NCCN(C)C)cccc3nc2c1 | 7.38 µM (inactive) | 2.74 µM (inactive) |  |  | 2.44 µM (inactive) |  | 2.84 µM (inactive) | 7.31 µM (inactive) | > 27.1 µM (inactive) |
| C/C=C1\CN2CCc3c([nH]c4ccccc34)C2CC1C(=O)OC (configuration not stated) | > 322 µM (inactive) |  | > 322 µM (inactive) |  |  | > 322 µM (inactive) | > 322 µM (inactive) |  |  |
| CCC1(OC(C)=O)C(=O)OCc2c1cc1n(c2=O)Cc2cc3ccccc3nc2-1 (configuration not stated) | 15 µM (inactive) | 0.611 µM (active) | > 66.4 µM (inactive) | 3.85 µM (inactive) | 2.48 µM (inactive) | 17.9 µM (inactive) | 0.388 µM (active) | > 40.9 µM (inactive) | > 34.8 µM (inactive) |
| O=c1/c(=C/c2ccco2)sc2nc3ccccc3n12 | > 10 µM (inactive) | > 10 µM (inactive) | > 10 µM (inactive) | > 10 µM (inactive) | > 10 µM (inactive) | > 10 µM (inactive) | 86.5 µM (inactive) | > 10 µM (inactive) | > 100 µM (inactive) |
| CC1(C)OC(C[C@]2(C#N)C[C@H](CCl)OC(C)(C)O2)C[C@@H](C[C@]2(C#N)C[C@H](CCl)OC(C)(C)O2)O1 (some centres not stated) | > 100 µM (inactive) |  | > 100 µM (inactive) |  | > 100 µM (inactive) | > 100 µM (inactive) | > 100 µM (inactive) | > 100 µM (inactive) | > 100 µM (inactive) |
| COC(=O)CC[C@@H](NC(=O)C(C)NC(=O)COC1C(O)C(COC(=O)CCCCCCCCCCNC(=O)c2ccc([N+](=O)[O-])c3[nH]c4cc(Br)ccc4c(=O)c23)OC(OCc2ccccc2)C1NC(C)=O)C(N)=O (some centres not stated) | 26.2 µM (inactive) | 35.6 µM (inactive) | 35.4 µM (inactive) |  | 50.8 µM (inactive) | > 100 µM (inactive) | > 100 µM (inactive) | 71.8 µM (inactive) | 35.7 µM (inactive) |
| CC#CC1/C(=C\C(=O)OC)CCCC1O (configuration not stated) |  | > 100 µM (inactive) | > 100 µM (inactive) |  | > 100 µM (inactive) | > 100 µM (inactive) | > 100 µM (inactive) | > 100 µM (inactive) |  |
| CC(=O)OC[C@@H](COC(=O)/C=C/c1ccc(O)cc1)OC1OC(CO)C(O)C(O)C1O (some centres not stated) | > 100 µM (inactive) |  | > 100 µM (inactive) | > 100 µM (inactive) | > 100 µM (inactive) | > 100 µM (inactive) |  | > 100 µM (inactive) | > 100 µM (inactive) |
| CSc1ccc2c(cc1=O)[C@@H](NC(=O)c1cc(O)c(O)c(O)c1)CCc1cc(O)c(O)c(O)c1-2 | 18.9 µM (inactive) |  | 21.2 µM (inactive) | 15.5 µM (inactive) | 14.6 µM (inactive) | 15.4 µM (inactive) | 20.5 µM (inactive) | 31 µM (inactive) |  |
| Cc1[nH]c(=O)[nH]c(=O)c1N(CCF)CCCl [FLUORODOPAN] |  | 193 µM (inactive) | 384 µM (inactive) |  |  |  |  | 322 µM (inactive) |  |
